{"source": "patent US5932483A", "about": "“Synthetic peptide and its uses” (Northwestern University, priority 1996, dated 1999)", "key": {"[1]": {"tested_on": "sensitized sheep erythrocytes (SRBCs), human serum as complement", "assay": "Sheep red blood cell lysis assay (SRBC assay)", "type": "cell-based", "details": "highest concentration (1 mM) tested"}, "[2]": {"tested_on": "pig aorta endothelial cells (PAECs), human serum", "assay": "Chromium release assay (PAEC assay)", "type": "cell-based", "details": "highest concentration (1 mM) tested", "description": "Culture plates (Falcon 24-well plates, Becton Dickinson, Lincoln Park, N.J.) were coated by addition of 0.5 ml/well of 2% gelatin (Type B, from bovine skin, Sigma Chemical Co.) diluted 1:10 in Hanks buffered salt solution (Gibco BRL, Grand Island, N.Y.), followed by incubation for 15 min at room temperature. The gelatin solution was removed, and 125×10^3 pig aorta endothelial cells (PAECs, Cell Systems, Kirkland, Wash.) in 2 ml of cell culture medium (CCM, Dulbecco's modified Eagle's medium (DMEM) with high glucose (Gibco BRL) containing 20% defined fetal bovine serum (FBS, HyClone Laboratories, Logan, Utah) that had been heat inactived for 30 min at 56° C., 1%(v/v) L-glutamine (200 mM, Gibco BRL) and penicillin G sodium (10,000 units/ml)/streptomycin sulfate (10,000 μg/ml in 0.85% saline, Gibco BRL)] were added per well. The plate was centrifuged in a model GS-6R Beckman table top centrifuge at 20×g for 2 min with the brake off to settle the cells onto the gelatin in a even monolayer, after which the plate was incubated at 37° C. in 5% CO2 -95% air. After 4 hours, cell attachment had occurred, and the CCM was removed and replaced with 2 ml of fresh CCM. In 2-4 days the PAECs had grown to 80-100% confluence and were used in the complement mediated chromium release assay.\nThe PAECs were washed 3 times with 1 ml of serum free medium (SFM), leaving the SFM on the cells for 5 min each time. Chromium radioisotope (^51 Cr, NaCrO4, Amersham Corp., Arlington Heights, Ill.) was diluted in SFM to give 40 μCi/ml, and 100 μl were added to each well of the PAEC culture plate. The plate was incubated for 2 hours at 37° C. in 5% CO2 -95% air. The wells were washed three times with 1 ml of SFM. Then, 1 ml of PBS was added to each well, and the plate was incubated at 37° C. for 30 min to help reduce ^51 Cr background.\nThe various peptide inhibitors (diluted in SFM) were added (300 μl/well) and incubated with the PAECs at 37° C. for 30 min. Undiluted human serum (HS, 100 μl) or 100 μl of heat inactivated human serum (HIHS) was added to each well, and the plate was incubated at 37° C. for 1 hour. Supernatant (200 μl) was removed from each well and added to 200 μl of scintillation cocktail (OptiPhase `Supermix`, Wallac Inc., Turku, Finland) previously added to each well of a 24-well polyethylene terephtalate reading plate (Wallac Inc.), and the plate was sealed with an acetate plate sealer (Dynatech Laboratories, Chantilly, Va.). The reading plate was placed on a shaker for 5 min to obtain a homogeneous mixture. Radioactivity (CPMs) of the wells was counted for 2 min using the 1450 MicroBeta PLUS plate reader (Wallac Inc.).\nTotal counts of ^51 Cr were determined from 200 μl aliquots taken from the wells to which 100 μl of 5% Triton X-100 (Sigma Chemical Co.) had been added. Total complement mediated lysis was determined from wells treated with HS alone, and background counts were determined from wells treated with HI-HS alone or with peptide alone (no HS). The average background was subtracted from all well counts, and the percent inhibition calculated as total lysis minus lysis with inhibitor/total lysis multiplied by 100. All experimental points were obtained in triplicate, and the data were analyzed in the same manner as the data from the SRBC assays."}, "[3]": {"biological_target": "binding of rabbit Ig-HRP to solid phase C1q", "assay": "Inhibition of binding of Ig-HRP to solid phase C1q", "description": "C1q (gift of Dr. Lawrence Potempa, Immtech International Inc., Evanston, Ill.) diluted to 10 μg/ml in coating buffer was placed in the wells of a microtiter plate (100 μl/well) and incubated for 2 hours at 25° C. The uncoated surfaces of the wells were blocked by adding 340 μl PBSC and incubating the plate for 1 hour at 25° C., followed by washing 3 times with PBSC. Dilutions of Ig-HRP in C1q buffer (50 mM Tris, pH 7.2, 27 mM NaCl, 1 mM CaCl2, 0.01% (wt/v) Thimerosal) were incubated in the wells (100 μl/well) for 1 hour at 25° C. followed by washing 3 times with C1q buffer. OPD substrate buffer was then added (100 μl/well), and the colored product was measured at 414 nm in a Titertek Multiskan plate reader.\nC1q was coated onto the surface of the wells of a microtiter plate as described in Part C. […] OPD substrate buffer (100 μl/well) was then added and the colored product measured at 414 nm in a Titertek Mutiskan plate reader."}, "[4]": {"biological_target": "binding of rabbit Ig-HRP by solid phase Protein A", "assay": "Inhibition of binding of Ig-HRP to solid phase Protein A", "description": "Protein A (recombinant Protein A from Repligen, Cambridge, Mass.) diluted to 1 μg/ml in coating buffer (0.1M NaHCO3, pH 9.0) was incubated in the wells of a microtiter plate (100 μl per well) for 2 hours at 37° C. Uncoated surfaces of the wells were blocked by adding 340 μl PBSC (9 mM Na2 HPO4, 1 mM NaH2 PO4, pH 7.2, 154 mM NaCl, 1 mg/ml casein or ovalbumin, and 0.01% thimerosal), incubating the plate 1 hour at 37° C., and then washing the wells 3 times with PBSCT (PBSC plus 0.1% Tween 20 (polyoxyethylene sorbitan monolaurate)). Dilutions of rabbit immunoglobulin labeled with horseradish peroxidase (Ig-HRP) (Zymed Laboratories, Inc., South San Francisco, Calif.) in PBS (9 mM Na2 HPO4, 1 mM NaH2 PO4, pH 7.2, 154 mM NaCl) were incubated in the wells (100 μl per well) for 2 hours at 37° C. followed by washing 3 times with PBS. OPD substrate buffer (0.8 mg/ml o-phenylenediamine, 0.1M Na2 HPO4, 0.05M sodium citrate, pH 5.5, plus 0.15% (v/v) H2 O2) was then added to the wells (100 μl/well), and the resultant colored product was measured with a Titertek Multiskan plate reader using a 414 nm filter.\nOPD substrate buffer was then added (100 μl/well), and the resulting colored product was measured at 414 nm in a Titertek Multiskan plate reader.\n8. […] Then the inhibition assay using solid phase Protein A was performed as described above."}, "[5]": {"tested_on": "PAP binding to solid phase CBP2", "sequence (P01870 whole entry)": "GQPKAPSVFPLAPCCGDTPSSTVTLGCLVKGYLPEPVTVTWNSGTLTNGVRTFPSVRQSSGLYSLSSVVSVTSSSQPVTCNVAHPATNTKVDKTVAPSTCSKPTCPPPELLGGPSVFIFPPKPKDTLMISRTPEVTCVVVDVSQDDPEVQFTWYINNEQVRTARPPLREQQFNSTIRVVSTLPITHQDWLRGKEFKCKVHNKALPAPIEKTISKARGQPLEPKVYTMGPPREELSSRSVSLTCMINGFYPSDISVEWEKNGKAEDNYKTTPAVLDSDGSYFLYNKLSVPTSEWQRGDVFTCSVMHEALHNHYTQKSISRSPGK", "assay": "Elution or inhibition of PAP binding to the CBP2 column by solution peptide", "parameters": "species or system rabbit", "description": "An additional 6 ml of C1q buffer was used to wash the column followed by 3 ml of 2% (v/v) acetic acid and then with 6 ml of C1q buffer to completely wash the column.\nThe sample was then eluted with 21 ml C1q buffer followed by 3 ml of 2% (v/v) acetic acid and then 6 ml C1q buffer. The column fractions were assayed for the presence of peroxidase as described above in Part A, and the concentration of PAP was calculated from the standard curve data.\nThis was not the case, however, since similar concentrations were used for column elution as for the pre-incubation studies. […] Thus, the effect of aggregates, if they formed, was of little significance."}, "[6]": {"details": "same concentration range as CBP2"}}, "data": [{"substance": "Ac-AEAKAKA-NH2 [AEK, Ac-Ala Glu Ala Lys Ala Lys Ala-NH2]", "values": [{"measurement": "inhibitory activity in the SRBC assay", "setting": "[1]", "value": "no inhibitory activity"}, {"measurement": "inhibitory activity in the PAEC assay", "setting": "[2]", "value": "no inhibitory activity"}]}, {"substance": "C1q: complement component C1q, gift of Immtech International, liquid phase positive control", "values": [{"measurement": "IC50", "setting": "[3]; read-out: 50% inhibition concentration for liquid phase C1q inhibiting solid phase C1q", "value": "~10", "unit": "nM"}]}, {"substance": "Protein A: recombinant Protein A from Repligen, positive control in solution phase [reference compound]", "values": [{"measurement": "IC50", "setting": "[4]; Ig-HRP binding to solid phase Protein A, read-out: 50% inhibition concentration for solution phase Protein A", "value": 1, "unit": "nM"}]}, {"substance": "luteinizing hormone releasing hormone [LHRH, reference compound]", "values": [{"measurement": "PAP binding to solid phase CBP2 after pre-incubation with peptide", "setting": "[5]; 0.1 mM peptide, 1 hour 25° C., PAP 20 μg/ml", "value": "PAP binding to the column in the range normally observed"}, {"measurement": "elution of bound PAP from CBP2 column by peptide wash", "setting": "[5]; 3 ml of 336.2 μg/ml CBP2 or equimolar LHRH", "value": "no significant elution of PAP"}, {"measurement": "Protein A inhibitory activity", "setting": "[4]; [6]", "value": "no Protein A or C1q inhibitory activity"}, {"measurement": "C1q inhibitory activity", "setting": "[3]; [6]", "value": "no Protein A or C1q inhibitory activity"}]}]}
